Here are results for nine compounds from patent publication EP2118065B1, “Substituted 1H-benz[de]isoquinoline-1,3-diones” (priority 2007, dated 2008).

The test system of one assay is HL-60 human leukemia. As to the kind of experiment: MTT in vitro cytotoxicity. Particulars: read-out: IC50 value Leukemia HL-60.
Another assay has as its system U-937 lymphoma. Kind of assay: MTT in vitro cytotoxicity. To be noted: read-out: IC50 value Lymphoma U-937.
In another assay the test system is HL-60 cells. As to the kind of experiment: Annexin V-FITC/PI flow cytometric analysis of apoptosis. The format is cell-based, human. To be noted: 24 h. The protocol:
Induction of apoptosis in vitro by Compound 3b and 3f was further determined in HL-60 cells by flow cytometric assay using an Annexin V-FITC Apoptosis Detection Kit (BD Biosciences Pharmingen, San Diego, USA). Camptothecin was included in the study for comparison. Exponentially growing HL-60 cells in complete RPMI-1640 media (100 µl of 5×10^6) were plated in six well plates. 10 µl of each Compound in DMSO (5 and 10 µM concentrations) was added to the wells followed by the addition of required media (total volume 1ml). Plates were incubated at 37°C for 24 h. The cells were centrifuged at room temperature at 1500 rpm for 5 min. The pellet was washed twice with cold PBS and was re-suspended in the binding buffer (1X, 100µl) provided in the Kit. The cells were stained with Annexin V-FITC (5 µl) and Propidium Iodide [PI] (5µl) and incubated for 15 min in the dark at 25°C. Next 400µl of binding buffer was added to each tube and analyzed on a FACScan flow cytometer (Becton Dickinson, Mountainview, CA) using Cell Quest software. Cells stained with both Annexin-V-FITC and PI, containing DMSO as vehicle was used as stained control. Cells that were annexin^+ /Pr [Lower right quadrant (LR)] and annexin^+/PI^+ [Upper right quadrant (UR)] were considered as early apoptotic and late apoptotic respectively.
(Flow cytometry measures light scatter and fluorescence of single cells or particles in a stream.)

For a further assay, the system named is SW-620. As to the kind of experiment: SRB in vitro cytotoxicity, human tumor cell line. Type of assay: cell-based. Particulars: 10^-5 M, Colon: SW-620, read-out: growth inhibition. The protocol:
(§1) Compounds 3a-g were screened by sulforhodamine-B (SRB) semi-automated assay in a battery of cell lines. […] A., et. al. (1991); Feasibility high flux anticancer screen utilizing diverse panel of human tumor cell lines in culture. J Natl Cancer Inst. 83, 757-766]. Each compound was tested in triplicate sets of experiments at 10^-4 to 10^-6 M concentrations (Table 4).
(§2) A stock solution of 2 x 10^-2M was prepared in DMSO. The stock solutions were serially diluted to obtain working test solutions with complete growth medium (RPMI-1640 medium with 2mM glutamine, 100µg/ml streptomycin, pH 7.4, sterilized by filtration and supplemented with 10% fetal bovine serum and 100 units/ml penicillin before use) containing 50 µg/ml of gentamycin to obtain working test solutions. The working test solutions were not filtered/ sterilized but microbial contamination was controlled by addition of gentamycin in complete growth medium used for dilution of stock solutions to prepare working test solutions.
(§3) In vitro cytotoxicity against human cancer cell lines was determined^2 [Monk. A., et. al. (1991); Feasibility high flux anticancer screen utilizing diverse panel of human tumor cell lines in culture. J Natl Cancer Inst. 83, 757-766] using 96-well tissue culture plates. The cells were grown in tissue culture flasks in complete growth medium at 37°C in an atmosphere of 5% CO2 and 95% relative humidity in a carbon dioxide incubator. The cell suspension of required cell density (1-2 lakhs/ml) depending on the mass doubling time of cell lines was prepared in complete growth medium for determination of cytotoxicity. The aliquots of 100 µl of cell suspension were added to each well on a 96-well tissue culture plate. The blank wells contained complete medium in place of cell suspension. Simultaneously, control experiments with positive controls containing known anticancer agents were carried out. Cells were incubated for 24 hr.
(§4) The test materials (100 µl in each well) were added after 24-hours to the wells containing cell suspension and blank wells. The cells were allowed to grow in presence of test material by further incubating the plates for 48 hours. At the end of incubation period the cell growth was stopped by gently layering trichloroacetic acid (50% TCA, 50µl/well) on top of the medium in all the wells. The plates were incubated at 4°C for 1 hr. The plates were washed five times with distilled water to remove TCA, growth medium, low molecular weight metabolites, serum proteins etc. and air-dried.
(§5) The cell growth was measured^3 [Skehan, P, Storeng, R Scudiero, D, Monks, A, Mcmahon, J, Vistica, D, Warren, J.T., Bokesch, H., Kenney, S., Boyd, M.R. (1990). New colorimetric cytotoxicity assay for anti-cancer drug screening. J Natl Cancer Inst. 82: 1107-12] by staining with Sulphorhodamine B. Sulphorhodamine B (SRB, 0.4% in 1% acetic acid, 100 µl/well) was added to each well and plates were allowed to stand at room temperature for 30 minutes. The plates were washed with 1% acetic acid four times and then dried. Tris-HCl buffer (0.01 M, pH 10.5, 100 µl/well) was added to each well to solublise the dye. The plates were shaken gently for 10 minutes on a shaker and the optical density was recorded on ELISA reader at 540 nm. The cell growth was determined by subtracting mean OD value of respective blank from the mean OD value of experimental set. Percent growth in presence of test material was calculated considering the growth in absence of any test material as 100% and in turn percent growth inhibition in presence of test material was calculated. All the experiments were carried out in quadruplicate.

For another assay, the system named is 502713. Kind of assay: SRB in vitro cytotoxicity, human tumor cell line. Type of assay: cell-based. Particulars: 10^-5 M, Colon: 502713, read-out: growth inhibition. How it is done:
as §1, §2, §3, §4, §5

A further assay relates to HCT-15. Kind of assay: SRB in vitro cytotoxicity, human tumor cell line. The format is cell-based. Particulars: 10^-5 M, Colon: HCT-15, read-out: growth inhibition. How it is done: as §1, §2, §3, §4, §5
The next assay concerns IMR-32. As to the kind of experiment: SRB in vitro cytotoxicity, human tumor cell line. The format is cell-based. Particulars: 10^-5 M, Neuroblastoma: IMR-32, read-out: growth inhibition. How it is done: as §1, §2, §3, §4, §5
A further assay deals with S-180. As to the kind of experiment: In vivo anticancer activity: increase in median survival time. Further details: species or system Swiss albino male mice.
A further assay has as its system S-180 cells. As to the kind of experiment: 3H-thymidine and 3H-uridine incorporation in vitro (DNA and RNA synthesis).
Assay [1] relates to MOLT-4 cells. As to the kind of experiment: Flow cytometric DNA cell cycle analysis (sub-G1 fraction). The format is cell-based, Human. Particulars: camptothecin 1µM, 3 hrs. How it is done:
Effect of DNA content by cell cycle phase distribution was assessed using MOLT-4 cells. […] The incubation period was 3 hrs in case of camptothecin and 24 hrs. in rest of the treatments. The cells were then washed twice with ice-cold PBS, harvested, fixed with ice-cold PBS in 70% ethanol, and stored at -20 °C for 30 min. After fixation, the cells were incubated with RNase A (0.1 mg/ml) at 37°C for 30 min, stained with propidium iodide (50 µg/ml) for 30 min on ice in dark, and then measured for DNA content using BD-LSR Flow cytometer (Becton Dickinson, USA) equipped with electronic doublet, discrimination capability using blue (488nm) excitation from argon laser. Data were collected in list mode on 10,000 events for FL2-A vs. FL2-W and analyzed using Mod Fit 2.0 software (Fig 4). […] The sub-G1 fractions for control and camptothecin were 0.64 (Fig. 4A) and 11.92 % (Fig. 4B).

Assay [2] has as its system MOLT-4 cells. Kind of assay: Annexin V-FITC/PI flow cytometric analysis of apoptosis. The format is cell-based, Human. To be noted: 5µM, 6 hrs. How it is done:
Events of apoptosis were analyzed using Annexin V-FITC Apoptosis Detection Kit (A 2214 Sigma Aldrich, USA). Human leukemia Cells (MOLT-4, 1x10^6 cells/ml) in 6-well plate were treated with Compound 3f (3 and 5µg/ml), camptothecin (5µM) and incubated for 6 hrs. After incubation, the cells were centrifuged, rinsed with PBS twice and re-suspended in binding buffer (10 mM HEPES/NaOH, pH 7.5 containing 0.14M NaCl and 25 mM CaCl2). An aliquot (500 µl) of suspension was stained with of Annexin V-FITC (5 µl) and Propidium Iodide (10 µl). The cells were stored for 10 minutes at room temperature in the dark and then analyzed by BD-LSR flow cytometer (Becton Dickinson, USA) at two wavelengths to measure fluorescence for of Annexin V & PI binding at 515 and 639 nm.

[3] abbreviates: S-180, 30 mg/kg i.p., 7 injns., days 1-7.
The mark [4] stands for this setting: S-180, 60 mg/kg i.p., 7 injns., days 1-7.
The mark [5] stands for this setting: S-180, 60 mg/kg i.p., 7 injns., days 5-11.
Setting [6] is: S-180, 20 mg/kg i.p., 7 injns., days 1-7.
Setting [7] is: S-180, 6 mg/kg i.p., 7 injns., days 1-7.
Where [8] appears, read: S-180, 0.5 mg/kg i.p., 7 injns., days 1-7.
The mark [9] stands for this setting: S-180, 1 mg/kg i.p., 7 injns., days 1-7.

SMILES strings stand for the structures. Read-outs that look alike come from different tables or passages of the source.

Broadly, the IC50 is the point on the concentration scale where inhibition reaches its midpoint. As usually defined, the inhibition is the relative decrease from the control value, in per cent.

Consider `O=NN(CCCl)C(=O)NCCCl` [BCNU, Bis (2-chloroethyl-nitrosourea)], for which the IC50 turned out to be 30.5 µM in the assay with HL-60 human leukemia (MTT, 96 h) and 12.3 µM in the assay with U-937 lymphoma (MTT, 96 h).
Turning to `N.N.[Cl][Pt][Cl]` [Cis-Platinum], the IC50 in the assay with HL-60 human leukemia (MTT, 96 h) is 7 µM; with U-937 lymphoma (MTT, 96 h) it was 3.2 µM.
Take `O=C1c2cccc3c([N+](=O)[O-])ccc(c23)C(=O)N1CCCl` [Compound 3b, 6-Nitro-2-[2-(Chloroethyl)]-1H-benz[de]isoquinoline-1,3-dione]: the IC50 with HL-60 human leukemia (Homo sapiens, HL-60, 96 h) is 0.8 µM; in the assay on U-937 lymphoma (Homo sapiens, U-937, 96 h), 0.66 µM. In addition, the “early apoptotic cells (Annexin V^+/PI^-), LR” value (from here on “early apoptotic cells”) in the assay with HL-60 cells (5 µM) is 4.5%; in the assay on HL-60 cells (10 µM) it was 15.3%. Further, the “late apoptotic cells (Annexin V^+/PI^+), UR” value (“late apoptotic cells” below) in the assay on HL-60 cells (5 µM) is reported as 5.2%; with HL-60 cells (10 µM), 33.5%. The “total apoptotic cells (apoptotic cell population)” value in the assay with HL-60 cells (5 µM) is 9.7%; in the assay with HL-60 cells (10 µM) it was 48.8%. The inhibition at 10 µM in the assay with SW-620, in the assay on 502713, in the assay with HCT-15 and in the assay with IMR-32 was > 50% each time. Further, the “MST” value in the assay with S-180 (S-180, 40 mg/kg i.p., 7 injns., days 1-7) is 20.5 days; in the assay with S-180 (S-180, 80 mg/kg i.p., 7 injns., days 1-7), 23.0 days.
For `O=C1c2cccc3cc([N+](=O)[O-])cc(c23)C(=O)N1CCCCl` [Compound 3g, 5-Nitro-2-[3-(Chloropropyl)]-1H-benz[de]isoquinoline-1,3-dione], the “MST” value in the assay on S-180 (setting [3]) worked out at 25.5 days; in the assay on S-180 (setting [4]), 24.0 days; in the assay with S-180 (setting [5]), 25.0 days. The T/C % with S-180 (setting [3]) turned out to be 106%; in the assay with S-180 (setting [4]), 129%; with S-180 (setting [5]), 104%.
As for `O=c1[nH]cc(F)c(=O)[nH]1` [Compound 5-FU, 5-fluorouracil, reference compound], the IC50 in the assay on HL-60 human leukemia (Homo sapiens, HL-60, 96 h) was found to be 266 µM. For the same compound, in the assay on S-180 (setting [6]), the “MST” value amounted to 53.5 days, the “Survivors > 60 days” value is listed as 3 and the T/C % was 233%. In addition, the T/C % in the assay with S-180 (mouse, in vivo) is recorded as 233. In addition, the IC50 in the assay on U-937 lymphoma (Homo sapiens, U-937, 96 h) is 4.7 µM.
In the case of `O=P1(N(CCCl)CCCl)NCCCO1` (stereo not shown) [Cyclophosphamide, reference compound], in the assay with S-180 (setting [7]), the “MST” value came out at 33.0 days and the T/C % is recorded as 143%.
In the case of `NC(=O)NO` [Hydroxyurea], the IC50 worked out at 204 µM in the assay on HL-60 human leukemia (Homo sapiens, HL-60, 96 h) and 115 µM with U-937 lymphoma (Homo sapiens, U-937, 96 h).
With `CN(C)CCN1C(=O)c2cccc3cc([N+](=O)[O-])cc(c23)C1=O` [Mitonafide, reference compound], the inhibition at 8 µM in the assay with S-180 cells (Mus musculus, S-180, read-out: DNA synthesis inhibition (3H-thymidine uptake)) was 93%. The “RNA synthesis inhibition (3H-uridine uptake)” value in the assay with S-180 cells (S-180 cells, 8 µM, 1 hr incubation, with respect to control) turned out to be 92%. Further, in the assay with S-180 (setting [8]), the “MST” value is 36.5 days, the “Survivors > 60 days” value came to 1 and the T/C % came out at 187%. Moreover, in the assay on S-180 (setting [9]), the “MST” value stood at 25.0 days and the T/C % came out at 128%.
For the compound `CC[C@@]1(O)C(=O)OCc2c1cc1n(c2=O)Cc2cc3ccccc3nc2-1` [camptothecin, reference compound], in the assay with HL-60 cells (5 µM), the “early apoptotic cells” value is 7.79%; the “late apoptotic cells” value was 5.46%; the “total apoptotic cells (apoptotic cell population)” value is 13.3%. Moreover, in the assay with HL-60 cells (10 µM), the “early apoptotic cells” value stood at 10.52%; the “late apoptotic cells” value turned out to be 5.30%; the “total apoptotic cells (apoptotic cell population)” value is on record as 15.8%. The sub-G1 fraction with MOLT-4 cells [1] is reported as 11.92%. In the assay on MOLT-4 cells [2], this compound yielded a total apoptotic cells of 8.83%.
